Reference: US10597388B2, “Pyridazinone herbicides” (FMC CORPORATION, priority 2014, dated 2020)

Columns and labels:
Test in all cases: Test E greenhouse herbicide test, pre- and postemergence
Format in all cases: in vivo
[1] = test system: crabgrass, Brazilian (Brazilian crabgrass, Digitaria horizontalis)
Method in brief: (§1)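 For each species, sown seed in silt loam and young plants (2 to 18 cm) in a peat/vermiculite medium were each treated with compound dissolved in surfactant-containing, non-phytotoxic solvent. After 14 to 21 d under greenhouse conditions, effects were visually rated, 100 meaning complete control.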

[2] = test system: dayflower (Virginia (VA) dayflower, Commelina virginica)
Method in brief: as §1

[3] = test system: goosegrass (Eleusine indica); details: Preemergence
Method in brief: as §1

[4] = test system: nutsedge, yellow (yellow nutsedge, Cyperus esculentus); details: Preemergence
Method in brief: as §1

[5] = test system: pigweed, palmer (palmer pigweed, Amaranthus palmeri)
Method in brief: as §1

kochia (Kochia scoparia) = test system: kochia (Kochia scoparia)
Method in brief: as §1

[6] = test system: surinam grass (Brachiaria decumbens); details: Preemergence
Method in brief: as §1

[7] = test system: barnyardgrass (Echinochloa crus-galli)
Method in brief: as §1

[8] = test system: johnsongrass (Sorghum halepense); details: Preemergence
Method in brief: as §1

[9] = test system: waterhemp (common waterhemp, Amaranthus rudis)
Method in brief: as §1

[10] = 62 g ai/ha, Postemergence, scale 0 to 100 (0 no effect, 100 complete control)
[11] = 62 g ai/ha, Preemergence, scale 0 to 100 (0 no effect, 100 complete control)
[12] = 125 g ai/ha, Postemergence, scale 0 to 100 (0 no effect, 100 complete control)
[13] = 125 g ai/ha, Preemergence, scale 0 to 100 (0 no effect, 100 complete control)
[14] = Postemergence, 16 g ai/ha, visual, scale 0 no effect to 100 complete control
[15] = Postemergence, 31 g ai/ha, visual, scale 0 no effect to 100 complete control
[16] = Preemergence, 16 g ai/ha, scale 0 to 100, 0 no effect, 100 complete control
[17] = Preemergence, 31 g ai/ha, scale 0 to 100, 0 no effect, 100 complete control
[18] = 62 g ai/ha, scale 0 to 100 (0 no effect, 100 complete control)
[19] = 125 g ai/ha, scale 0 to 100 (0 no effect, 100 complete control)
[20] = 16 g ai/ha, scale 0 to 100, 0 no effect, 100 complete control
[21] = 31 g ai/ha, scale 0 to 100, 0 no effect, 100 complete control
[22] = 250 g ai/ha, Postemergence, scale 0 to 100 (0 no effect, 100 complete control)
[23] = Preemergence, 250 g ai/ha, visual, scale 0 no effect to 100 complete control
[24] = 250 g ai/ha, visual, scale 0 no effect to 100 complete control

Cc1ccc2sc(C)c(-c3c(OC(=O)OC(C)C)c(C)nn(C)c3=O)c2c1 [Compound 66]
Plant response rating, Crabgrass, Brazil [1, 10]: 30
Plant response rating, Crabgrass, Brazil [1, 11]: 25
Plant response rating, Crabgrass, Brazil [1, 12]: 40
Plant response rating, Crabgrass, Brazil [1, 13]: 65
Plant response rating, Crabgrass, Brazil [1, 14]: 10
Plant response rating, Crabgrass, Brazil [1, 15]: 20
Plant response rating, Crabgrass, Brazil [1, 16]: 0
Plant response rating, Crabgrass, Brazil [1, 17]: 25
Plant response rating, Dayflower, VA [2, 10]: 60
Plant response rating, Dayflower, VA [2, 11]: 0
Plant response rating, Dayflower, VA [2, 12]: 50
Plant response rating, Dayflower, VA [2, 13]: 20
Plant response rating, Dayflower, VA [2, 14]: 0
Plant response rating, Dayflower, VA [2, 15]: 25
Plant response rating, Dayflower, VA [2, 16]: 0
Plant response rating, Dayflower, VA [2, 17]: 0
Plant response rating, Goosegrass [3, 18]: 10
Plant response rating, Goosegrass [3, 19]: 10
Plant response rating, Goosegrass [3, 20]: 5
Plant response rating, Goosegrass [3, 21]: 5
Plant response rating, Nutsedge, Yellow [4, 18]: 65
Plant response rating, Nutsedge, Yellow [4, 19]: 50
Plant response rating, Nutsedge, Yellow [4, 20]: 0
Plant response rating, Nutsedge, Yellow [4, 21]: 5
Plant response rating, Pigweed, Palmer [5, 10]: 60
Plant response rating, Pigweed, Palmer [5, 11]: 65
Plant response rating, Pigweed, Palmer [5, 12]: 80
Plant response rating, Pigweed, Palmer [5, 13]: 100
Plant response rating, Pigweed, Palmer [5, 14]: 50
Plant response rating, Pigweed, Palmer [5, 15]: 70
Plant response rating, Pigweed, Palmer [5, 16]: 0
Plant response rating, Pigweed, Palmer [5, 17]: 0
Plant response rating, Kochia (kochia (Kochia scoparia); [10]): 90
Plant response rating, Kochia (kochia (Kochia scoparia); [11]): 60
Plant response rating, Kochia (kochia (Kochia scoparia); [12]): 95
Plant response rating, Kochia (kochia (Kochia scoparia); [13]): 90
Plant response rating, Kochia (kochia (Kochia scoparia); [14]): 90
Plant response rating, Kochia (kochia (Kochia scoparia); [15]): 95
Plant response rating, Kochia (kochia (Kochia scoparia); [16]): 0
Plant response rating, Kochia (kochia (Kochia scoparia); [17]): 0
Plant response rating, Surinam Grass [6, 18]: 5
Plant response rating, Surinam Grass [6, 19]: 50
Plant response rating, Surinam Grass [6, 20]: 5
Plant response rating, Surinam Grass [6, 21]: 20
Plant response rating, Barnyardgrass [7, 10]: 25
Plant response rating, Barnyardgrass [7, 11]: 20
Plant response rating, Barnyardgrass [7, 12]: 20
Plant response rating, Barnyardgrass [7, 13]: 15
Plant response rating, Barnyardgrass [7, 14]: 20
Plant response rating, Barnyardgrass [7, 15]: 15
Plant response rating, Barnyardgrass [7, 16]: 0
Plant response rating, Barnyardgrass [7, 17]: 15
Plant response rating, Johnsongrass [8, 18]: 0
Plant response rating, Johnsongrass [8, 19]: 0
Plant response rating, Johnsongrass [8, 20]: 0
Plant response rating, Johnsongrass [8, 21]: 0
Plant response rating, Waterhemp [9, 10]: 75
Plant response rating, Waterhemp [9, 11]: 80
Plant response rating, Waterhemp [9, 12]: 80
Plant response rating, Waterhemp [9, 13]: 90
Plant response rating, Waterhemp [9, 14]: 70
Plant response rating, Waterhemp [9, 15]: 65
Plant response rating, Waterhemp [9, 16]: 0
Plant response rating, Waterhemp [9, 17]: 65

Cc1ccc2ccccc2c1-c1c(OC(=O)OC(C)C)c(C)nn(C)c1=O [Compound 72]
Plant response rating, Crabgrass, Brazil [1, 10]: 40
Plant response rating, Crabgrass, Brazil [1, 11]: 60
Plant response rating, Crabgrass, Brazil [1, 12]: 60
Plant response rating, Crabgrass, Brazil [1, 13]: 90
Plant response rating, Crabgrass, Brazil [1, 22]: 70
Plant response rating, Crabgrass, Brazil [1, 15]: 50
Plant response rating, Crabgrass, Brazil [1, 17]: 50
Plant response rating, Crabgrass, Brazil [1, 23]: 98
Plant response rating, Dayflower, VA [2, 10]: 65
Plant response rating, Dayflower, VA [2, 11]: 15
Plant response rating, Dayflower, VA [2, 12]: 80
Plant response rating, Dayflower, VA [2, 13]: 50
Plant response rating, Dayflower, VA [2, 22]: 80
Plant response rating, Dayflower, VA [2, 15]: 60
Plant response rating, Dayflower, VA [2, 17]: 0
Plant response rating, Dayflower, VA [2, 23]: 50
Plant response rating, Goosegrass [3, 18]: 40
Plant response rating, Goosegrass [3, 19]: 60
Plant response rating, Goosegrass [3, 21]: 20
Plant response rating, Goosegrass [3, 24]: 80
Plant response rating, Nutsedge, Yellow [4, 18]: 20
Plant response rating, Nutsedge, Yellow [4, 19]: 30
Plant response rating, Nutsedge, Yellow [4, 24]: 35
Plant response rating, Pigweed, Palmer [5, 10]: 50
Plant response rating, Pigweed, Palmer [5, 11]: 75
Plant response rating, Pigweed, Palmer [5, 12]: 60
Plant response rating, Pigweed, Palmer [5, 13]: 95
Plant response rating, Pigweed, Palmer [5, 22]: 75
Plant response rating, Pigweed, Palmer [5, 15]: 50
Plant response rating, Pigweed, Palmer [5, 17]: 35
Plant response rating, Pigweed, Palmer [5, 23]: 90
Plant response rating, Kochia (kochia (Kochia scoparia); [10]): 98
Plant response rating, Kochia (kochia (Kochia scoparia); [11]): 35
Plant response rating, Kochia (kochia (Kochia scoparia); [12]): 90
Plant response rating, Kochia (kochia (Kochia scoparia); [13]): 60
Plant response rating, Kochia (kochia (Kochia scoparia); [22]): 90
Plant response rating, Kochia (kochia (Kochia scoparia); [15]): 70
Plant response rating, Kochia (kochia (Kochia scoparia); [17]): 25
Plant response rating, Kochia (kochia (Kochia scoparia); [23]): 98
Plant response rating, Surinam Grass [6, 18]: 40
Plant response rating, Surinam Grass [6, 19]: 75
Plant response rating, Surinam Grass [6, 21]: 5
Plant response rating, Surinam Grass [6, 24]: 90
Plant response rating, Barnyardgrass [7, 10]: 40
Plant response rating, Barnyardgrass [7, 11]: 30
Plant response rating, Barnyardgrass [7, 12]: 40
Plant response rating, Barnyardgrass [7, 13]: 50
Plant response rating, Barnyardgrass [7, 22]: 50
Plant response rating, Barnyardgrass [7, 15]: 30
Plant response rating, Barnyardgrass [7, 17]: 0
Plant response rating, Barnyardgrass [7, 23]: 50
Plant response rating, Johnsongrass [8, 18]: 0
Plant response rating, Johnsongrass [8, 19]: 35
Plant response rating, Johnsongrass [8, 21]: 0
Plant response rating, Johnsongrass [8, 24]: 35
Plant response rating, Waterhemp [9, 10]: 65
Plant response rating, Waterhemp [9, 11]: 100
Plant response rating, Waterhemp [9, 12]: 80
Plant response rating, Waterhemp [9, 13]: 100
Plant response rating, Waterhemp [9, 22]: 90
Plant response rating, Waterhemp [9, 15]: 65
Plant response rating, Waterhemp [9, 17]: 90
Plant response rating, Waterhemp [9, 23]: 100
